# Measurements published in PMC9019572, “Design, Synthesis, and Biological Evaluation of [1,2,4]triazolo[4,3-a] Pyrazine Derivatives as Novel Dual c-Met/VEGFR-2 Inhibitors” (Frontiers in Chemistry, 2022).
# How the values were obtained:
# VEGFR-2 = VEGFR-2 (Homo sapiens, UniProt P35968); assay: VEGFR-2 kinase inhibition assay; assay type: biochemical
# Procedure: (§1) The kinase assay was performed by Pratzer Biotechnology Co. Ltd. (Changsha, China).
# c-Met kinase = c-Met kinase (Homo sapiens, UniProt P08581); assay: c-Met kinase inhibition assay; assay type: biochemical
# c-Met kinase, sequence (P08581 25-1390): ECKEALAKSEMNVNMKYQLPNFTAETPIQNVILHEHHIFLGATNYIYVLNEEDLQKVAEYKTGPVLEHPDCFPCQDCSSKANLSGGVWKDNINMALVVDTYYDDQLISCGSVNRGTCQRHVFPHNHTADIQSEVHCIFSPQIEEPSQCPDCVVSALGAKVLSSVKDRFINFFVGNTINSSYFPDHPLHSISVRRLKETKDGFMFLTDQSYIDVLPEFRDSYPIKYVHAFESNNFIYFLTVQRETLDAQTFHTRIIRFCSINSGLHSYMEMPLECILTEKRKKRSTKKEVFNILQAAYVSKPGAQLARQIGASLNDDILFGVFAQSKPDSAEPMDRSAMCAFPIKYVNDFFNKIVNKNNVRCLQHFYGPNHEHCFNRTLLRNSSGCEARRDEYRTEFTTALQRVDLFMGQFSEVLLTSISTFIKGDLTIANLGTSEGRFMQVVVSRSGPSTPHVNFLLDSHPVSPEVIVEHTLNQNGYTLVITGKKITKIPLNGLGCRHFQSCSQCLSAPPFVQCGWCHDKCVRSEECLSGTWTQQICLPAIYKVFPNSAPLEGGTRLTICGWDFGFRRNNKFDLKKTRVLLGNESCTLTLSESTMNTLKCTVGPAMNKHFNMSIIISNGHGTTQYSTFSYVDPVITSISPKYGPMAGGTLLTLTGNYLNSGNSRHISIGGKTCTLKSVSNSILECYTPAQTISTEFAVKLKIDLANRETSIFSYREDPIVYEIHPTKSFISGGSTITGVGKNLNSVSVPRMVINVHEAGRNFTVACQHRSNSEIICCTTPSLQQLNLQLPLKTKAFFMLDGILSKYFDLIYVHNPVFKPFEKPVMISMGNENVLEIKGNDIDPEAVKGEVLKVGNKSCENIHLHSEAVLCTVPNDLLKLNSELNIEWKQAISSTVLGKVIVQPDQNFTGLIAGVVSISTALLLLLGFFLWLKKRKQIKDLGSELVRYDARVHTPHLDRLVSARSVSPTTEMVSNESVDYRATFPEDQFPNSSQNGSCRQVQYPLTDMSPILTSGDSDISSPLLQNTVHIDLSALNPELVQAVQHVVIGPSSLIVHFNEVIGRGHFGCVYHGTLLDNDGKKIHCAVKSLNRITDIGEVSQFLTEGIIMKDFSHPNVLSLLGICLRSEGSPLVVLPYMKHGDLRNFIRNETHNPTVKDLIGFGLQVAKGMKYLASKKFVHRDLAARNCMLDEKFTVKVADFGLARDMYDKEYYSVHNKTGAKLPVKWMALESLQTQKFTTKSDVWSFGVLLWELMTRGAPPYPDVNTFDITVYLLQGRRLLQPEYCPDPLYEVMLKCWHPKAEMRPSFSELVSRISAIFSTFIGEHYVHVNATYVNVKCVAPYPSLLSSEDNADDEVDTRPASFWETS
# EGFR^WT = EGFR^WT (Homo sapiens, UniProt P00533); assay: EGFR^wt kinase inhibition assay; assay type: biochemical
# EGFR^WT, sequence (P00533 25-1210): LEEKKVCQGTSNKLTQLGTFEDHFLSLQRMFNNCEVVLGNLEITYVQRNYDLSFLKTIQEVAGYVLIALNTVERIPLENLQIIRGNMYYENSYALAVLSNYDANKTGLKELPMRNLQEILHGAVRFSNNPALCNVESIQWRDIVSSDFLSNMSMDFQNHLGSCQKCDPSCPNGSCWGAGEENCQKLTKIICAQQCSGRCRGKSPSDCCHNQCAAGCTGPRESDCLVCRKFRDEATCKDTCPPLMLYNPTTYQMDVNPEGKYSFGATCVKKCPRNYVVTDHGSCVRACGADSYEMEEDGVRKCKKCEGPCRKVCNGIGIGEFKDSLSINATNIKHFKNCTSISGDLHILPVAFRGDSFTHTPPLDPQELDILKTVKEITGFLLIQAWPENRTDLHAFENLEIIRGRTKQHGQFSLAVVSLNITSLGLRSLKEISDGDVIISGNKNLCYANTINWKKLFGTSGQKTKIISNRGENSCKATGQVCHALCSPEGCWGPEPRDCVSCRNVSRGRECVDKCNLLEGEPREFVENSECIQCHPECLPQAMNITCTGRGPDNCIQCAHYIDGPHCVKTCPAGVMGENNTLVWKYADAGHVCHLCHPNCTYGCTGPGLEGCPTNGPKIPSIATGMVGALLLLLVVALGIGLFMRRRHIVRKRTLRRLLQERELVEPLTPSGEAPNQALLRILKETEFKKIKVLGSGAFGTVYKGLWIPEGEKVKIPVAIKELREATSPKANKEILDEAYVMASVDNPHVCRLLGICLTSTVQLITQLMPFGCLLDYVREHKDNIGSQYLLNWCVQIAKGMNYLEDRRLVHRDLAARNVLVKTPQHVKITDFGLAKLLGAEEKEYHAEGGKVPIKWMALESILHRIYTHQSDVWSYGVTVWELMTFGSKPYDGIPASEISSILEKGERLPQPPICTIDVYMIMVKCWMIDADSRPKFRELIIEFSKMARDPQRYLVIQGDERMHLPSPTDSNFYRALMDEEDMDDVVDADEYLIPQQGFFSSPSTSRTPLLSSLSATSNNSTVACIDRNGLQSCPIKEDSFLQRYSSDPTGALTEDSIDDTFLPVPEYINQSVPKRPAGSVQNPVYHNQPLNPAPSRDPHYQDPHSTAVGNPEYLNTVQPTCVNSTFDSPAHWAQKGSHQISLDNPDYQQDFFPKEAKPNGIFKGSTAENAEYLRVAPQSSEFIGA
# Procedure: as §1
# p-VEGFR-2 (Tyr1059) = assay: Western blot, p-VEGFR-2 in A549 cells; assay type: cell-based, human; conditions: A549, 24 h, different concentrations
# Description: (§2) Western blot was utilized to further analyze the effect of compound 17l on the downstream signal protein of c-Met and VEGFR-2. The detailed operations refer to the previous method of our research group ([Zhao et al., 2020]). […] The extracted protein was transferred to a PVDF membrane in ice bath conditions after 10% SDS polyacrylamide gel electrophoresis separating the protein by size. The PVDF membrane was rinsed with phosphate-buffered solution (PBST), shaken in a Petri dish three times for 3–5 min every time, and incubated with different target proteins (p-c-Met, p-VEGFR-2, p-ERK 1/2, p-AKT, and GADPH). Finally, the film was exposed and developed in a darkroom. Image Lab software (Molecular Dynamics, Sunnyvale, CA, USA) was utilized to analyze the shadow density of each band, which was then expressed as a percentage of GDPDH band density ([Zhao et al., 2020]).
# (§3) We further verified the effect of compound 17l on c-Met and downstream signaling pathways. We treated A549 cell line with different doses of compound 17l for 24 h to measure its phosphorylation inhibition in different pathways.
# A549 cells [1] = assay: MTT antiproliferative assay, A549; assay type: cell-based; conditions: Homo sapiens, 72 h;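 also: formazan read-out dissolved in DMSO, each compound assayed three times, IC50 computed with Bliss software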
# Procedure: The cell lines used in the experiment were available from the Cell Culture Collection of Chinese Academy of Sciences (Shanghai Institutes for Biological Sciences, Chinese Academy of Sciences). […] The formazan crystals were dissolved in 100 µl of DMSO in each well. […] All compounds were tested three times in each of the cell lines. The results, expressed as inhibition rates or IC50 (half-maximal inhibitory concentration), were the averages of two determinations and calculated by using the Bacus Laboratories Incorporated Slide Scanner (Bliss) software.
# A549 cells [2] = assay: Cell cycle assay by flow cytometry; assay type: cell-based, human; conditions: A549, 1.0 μM, 72 h; control 61.14%
# Procedure: A549 cells were placed in 12-well plates at a density of 10^6/well with F-12 K containing 10% FBS as the medium, and the experiment was conducted on alternate days. Cells (1–5×10^6) were collected, centrifuged at 1,500 rpm for 5 min to remove the supernatant, washed with PBS twice, and gently mixed with 200 μl of cell cycle rapid detection reagent to make a single-cell suspension, which was detected by flow cytometry within 1 h.
# We treated A549 cells with 1.0 μM compound 17l for 72 h and determined its effect on cell cycle by flow cytometry to further reveal the growth inhibition mechanism of the target compound on tumor cells. […] At the same time, the content of cell block rate decreased in S phase, but the change in G2/M phase was not obvious.
# PC-9 cells = assay: Antiproliferative activity, PC-9; assay type: cell-based; conditions: Homo sapiens
# Procedure: (§4) The cell lines used in the experiment were available from the Cell Culture Collection of Chinese Academy of Sciences (Shanghai Institutes for Biological Sciences, Chinese Academy of Sciences). Referring to the previous experimental methods of our research, all cells were cultured in suitable medium such as DMEM or RPMI-1640 containing 10% fetal bovine serum at 37°C in 5% CO2 and propagated for 24 h. Then the compounds with different gradient concentrations were added into the medium and incubated for 72 h, and then MTT (thiazolyl blue tetrazolium bromide) with a concentration of 5 µg/ml was added to every well for 4 h at 37°C. The formazan crystals were dissolved in 100 µl of DMSO in each well. The absorbancy at 492 nm (for absorbance of MTT formazan) and 630 nm (for the reference wavelength) was measured with an ELISA reader. All compounds were tested three times in each of the cell lines. The results, expressed as inhibition rates or IC50 (half-maximal inhibitory concentration), were the averages of two determinations and calculated by using the Bacus Laboratories Incorporated Slide Scanner (Bliss) software.
# H460 cells = assay: Antiproliferative activity, H460; assay type: cell-based; conditions: Homo sapiens, NCI-H460
# Procedure: as §4
# A549 cells [3] = assay: Annexin V/PI apoptosis assay by flow cytometry; assay type: cell-based, human; conditions: 72 h; for Q1-LR: control 1.68%; for Q1-UL: control 1.87%; for Q1-UR: control 2.05%; for total apoptosis rate: control 3.73%; for Q1-LL: control 94.40%
# Procedure: The cell apoptosis assay was performed by Pratzer Biotechnology Co. Ltd. (Changsha, China). After A549 cells were resuscitated, the cells were cultured in F-12 K medium containing 10% FBS and 1% pen/strep in incubator with 5% CO2 at 37°C. A549 cells, being in the logarithmic growth phase, were digested with […] and laid in six-well plates with a density of 2 × 10^5/well, and the cells were collected centrifugally after 72 h of treatment with each compound. The cells were washed twice with PBS, which was precooled to 4°C. Then the cells were suspended with 500 μl of buffer, and the concentration was adjusted to 10^6/ml. A 100-μl suspension was placed in a 5-ml flow tube, adding 5 µl of Annexin V-APC, adding 5 μl of propidiμm iodide, and the mixture was mixed and incubated at room temperature without light for 15 min detecting cell apoptosis by flow cytometry (FACS).
# The assay of annexin V/PI staining was performed to deeper research the mechanism of apoptosis induced by compound 17l in A549 cells.
# MCF-7 cells = assay: MTT antiproliferative assay, MCF-7; assay type: cell-based; conditions: Homo sapiens, MCF7; MTT, 72 h, MCF-7 cells; read-out: IC50 MCF-7
# Procedure: as §4
# p-c-Met (Tyr1003) = assay: Western blot, p-c-Met in A549 cells; assay type: cell-based, human; conditions: A549, 24 h, different concentrations
# Description: as §2, §3
# ERK1/2 and AKT = assay: Western blot, downstream ERK1/2 and AKT phosphorylation in A549 cells; assay type: cell-based, human; conditions: A549, 24 h, 1.00 μM
# Description: as §2, §3
# sheep red blood cells = assay: Hemolytic test; conditions: 16–256 μg/ml, at the highest concentration within the study range
# Procedure: The hemolytic toxicity of 17l was studied with 1% Triton and 0.9% normal saline, and the former was a positive control, and the latter was a negative control. […] (1%), 0.9% normal saline, and compound 17l of different concentrations prepared in 0.9% normal saline reacted with the prepared sheep red blood cells, respectively. Photos were taken, and the absorbance value was measured by ultraviolet spectrophotometer at a wavelength of 540 nm, and hemolysis ratio (hemolysis %) was calculated according to the following formula ([Guo et al., 2017]). The experiment was repeated twice in parallel. Hemolysis %=Abs(experimental group)−Abs(negative control)/Abs(positive control)−Abs(negative control)
# The best compound 17l with antiproliferative activity and kinase inhibition activity was selected to detect its hemolytic toxicity at a gradient concentration of 16–256 μg/ml, and the safety of intravenous administration was preliminarily investigated. […] Its hemolytic toxicity meets the requirements of intravenous administration, which provides a basis for further in vivo research.
# H1975 cells = assay: Antiproliferative activity, H1975; assay type: cell-based; conditions: Homo sapiens, NCI-H1975
# Procedure: as §4
# Hela cells = assay: MTT antiproliferative assay, Hela; assay type: cell-based; conditions: Homo sapiens; MTT, 72 h, Hela cells; read-out: IC50 Hela
# Procedure: as §4
# VEGFR-2, sequence (P35968 20-1356): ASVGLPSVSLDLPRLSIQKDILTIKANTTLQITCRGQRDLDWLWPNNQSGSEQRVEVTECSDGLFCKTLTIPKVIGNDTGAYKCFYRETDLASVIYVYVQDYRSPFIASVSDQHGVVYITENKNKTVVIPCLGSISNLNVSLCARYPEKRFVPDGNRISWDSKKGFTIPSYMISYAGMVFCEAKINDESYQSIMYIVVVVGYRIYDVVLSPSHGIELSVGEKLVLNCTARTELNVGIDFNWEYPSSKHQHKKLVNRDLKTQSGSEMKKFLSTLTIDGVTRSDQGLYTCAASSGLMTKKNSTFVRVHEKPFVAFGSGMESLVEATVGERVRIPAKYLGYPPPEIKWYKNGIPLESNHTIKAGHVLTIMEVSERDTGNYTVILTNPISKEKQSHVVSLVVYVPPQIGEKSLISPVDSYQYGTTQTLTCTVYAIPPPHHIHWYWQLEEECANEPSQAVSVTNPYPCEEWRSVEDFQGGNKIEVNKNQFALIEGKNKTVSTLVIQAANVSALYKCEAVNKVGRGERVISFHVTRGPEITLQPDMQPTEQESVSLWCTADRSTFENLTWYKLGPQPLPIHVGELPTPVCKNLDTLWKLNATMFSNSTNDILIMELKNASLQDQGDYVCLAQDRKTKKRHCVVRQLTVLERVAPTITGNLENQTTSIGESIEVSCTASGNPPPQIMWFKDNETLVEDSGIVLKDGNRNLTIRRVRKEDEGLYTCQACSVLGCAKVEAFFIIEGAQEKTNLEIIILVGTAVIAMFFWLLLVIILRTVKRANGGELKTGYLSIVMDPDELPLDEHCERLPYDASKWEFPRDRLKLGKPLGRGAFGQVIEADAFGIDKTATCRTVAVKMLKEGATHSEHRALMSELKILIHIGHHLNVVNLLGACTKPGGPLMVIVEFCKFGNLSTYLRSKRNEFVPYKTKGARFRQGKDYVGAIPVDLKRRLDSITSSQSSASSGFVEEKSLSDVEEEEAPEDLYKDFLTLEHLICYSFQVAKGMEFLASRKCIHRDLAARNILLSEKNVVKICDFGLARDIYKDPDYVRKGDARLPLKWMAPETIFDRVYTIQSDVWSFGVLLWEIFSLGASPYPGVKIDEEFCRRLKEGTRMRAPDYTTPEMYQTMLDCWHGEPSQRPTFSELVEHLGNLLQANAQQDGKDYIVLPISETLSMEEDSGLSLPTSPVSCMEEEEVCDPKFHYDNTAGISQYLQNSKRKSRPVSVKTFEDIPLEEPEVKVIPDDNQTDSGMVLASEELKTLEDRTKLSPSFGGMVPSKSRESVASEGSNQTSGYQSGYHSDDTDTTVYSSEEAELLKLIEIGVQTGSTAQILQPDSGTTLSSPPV
compound,measurement,setting,value
Cc1nnc2c(Oc3ccc(NC(=O)c4cnn(-c5ccc(Cl)cc5)c4C(F)(F)F)cc3F)nccn12 [17l],IC50,VEGFR-2,2.6 µM
same,IC50,c-Met kinase,0.026 µM
same,IC50,EGFR^WT,> 10 µM
same,inhibitory effect on p-VEGFR-2 (Tyr1059),p-VEGFR-2 (Tyr1059),not obvious
same,IC50,A549 cells [1],0.98 ± 0.08 µM
same,cell block rate in G0/G1 phase,A549 cells [2],76.14%
same,IC50,PC-9 cells,38.2 ± 1.58 µM
same,IC50,H460 cells,5.86 ± 0.77 µM
same,Q1-LR,"A549 cells [3]; A549, 0.25 μM",2.15%
same,Q1-UL,"A549 cells [3]; A549, 0.25 μM",4.27%
same,Q1-UR,"A549 cells [3]; A549, 0.25 μM",2.71%
same,total apoptosis rate,"A549 cells [3]; A549, 0.25 μM",4.86%
same,Q1-LL,"A549 cells [3]; A549, 0.25 μM",90.88%
same,Q1-LR,"A549 cells [3]; A549, 0.50 μM",3.07%
same,Q1-UL,"A549 cells [3]; A549, 0.50 μM",1.53%
same,Q1-UR,"A549 cells [3]; A549, 0.50 μM",3.38%
same,total apoptosis rate,"A549 cells [3]; A549, 0.50 μM",6.45%
same,Q1-LL,"A549 cells [3]; A549, 0.50 μM",92.02%
same,Q1-LR,"A549 cells [3]; A549, 1.00 μM",5.52%
same,Q1-UL,"A549 cells [3]; A549, 1.00 μM",0.30%
same,Q1-UR,"A549 cells [3]; A549, 1.00 μM",6.09%
same,total apoptosis rate,"A549 cells [3]; A549, 1.00 μM",11.61%
same,Q1-LL,"A549 cells [3]; A549, 1.00 μM",88.09%
same,IC50,MCF-7 cells,1.05 ± 0.17 µM
same,protein levels of p-c-Met (Tyr1003),p-c-Met (Tyr1003),inhibited
same,phosphorylation protein of downstream signals ERK1/2 and AKT,ERK1/2 and AKT,significantly inhibited
same,hemolytic rate,sheep red blood cells,less than 5%
same,IC50,H1975 cells,15.3 ± 1.18 µM
same,IC50,Hela cells,1.28 ± 0.25 µM
